Assay results as given in patent US9370516B2 (Pfizer Inc., priority 2012, dated 2016).
Where “and” joins values, the source holds several entries; their conditions need not be identical. Equal values may be shown once.

Assays:
patient GHSR1a [1] = molecular target: T1, patient GHSR1a (Homo sapiens, UniProt Q92847); conditions: pre-incubation 8 hours
From the text: (§1) The SPA format was utilized for high throughput screening of test compounds and filter binding served for more comprehensive binding characterization. In both formats test compound affinity is expressed as Ki value, defined as the concentration of compound required to decrease [^125I] ghrelin binding by 50% for a specific membrane batch at a given concentration of radioligand.

patient GHSR1a [2] = molecular target: T1, patient GHSR1a; assay: biochemical; conditions: for Ki: Human GHS-1aR Filter Ki
Description: as §1
Patient Ghrelin Filter Binding Assay
(§2) Ghrelin binding assays were performed in a final volume of 100 μl containing […] patient GHSR1a (HEK293 Tetracycline-Inducible cell line expressing the patient growth secretagogue receptor 1a; prepared as membranes) and 50 pM [^125I] ghrelin (Perkin Elmer Life Sciences, NEX-388), plus varying concentrations of test compound or vehicle.
(§3) Briefly, assays were prepared at room temperature in 96-well plates (Costar, 3357) containing 2 μl of test compound in DMSO (or DMSO as vehicle). Assays were initiated by addition of 23 μl assay buffer (50 mM HEPES, 10 mM MgCl2, 0.2% BSA, EDTA-free protease inhibitor tablets—1 tablet/50 ml buffer, pH 7.4), 25 μl 4 mg/ml hGHSR1a membrane and 50 μl of 100 pM [^125I] ghrelin, both in assay buffer.
The mixture was incubated for 90 minutes at room temperature followed by transfer to a 0.3% PEI-treated, 96-well glass fiber filtration plate (Perkin Elmer, 6005174). The mixture was suctioned dry with vacuum and immediately washed 3 times with 200 μl ice cold 50 mM Tris pH 7.5. Plates were allowed to dry overnight at room temperature and 30 μl Supermix scintillant (Perkin Elmer, 1200-439) is added to each well. The amount of receptor-ligand complex was determined by liquid scintillation counting using a 1450 Microbeta Trilux (Wallac).

mouse GHSR1a = mouse GHSR1a (Mus musculus, UniProt Q99P50); assay: biochemical; conditions: Mouse GHS-1aR Filter Ki, pre-incubation 90 minutes
Description: as §2, §3
(§4) The mixture was incubated for 90 minutes at room temperature followed by transfer to a 0.3% PEI-treated, 96-well glass fiber filtration plate (Perkin Elmer, 6005174). The mixture was suctioned dry with vacuum and immediately washed 3 times with 200 μl ice cold 50 mM Tris pH 7.5. Plates were allowed to dry overnight at room temperature and 30 μl Supermix scintillant (Perkin Elmer, 1200-439) is added to each well. The amount of receptor-ligand complex was determined by liquid scintillation counting using a 1450 Microbeta Trilux (Wallac). […]

rat GHSR1a = rat GHSR1a (Rattus norvegicus, UniProt O08725); assay: biochemical; conditions: Rat GHS-1aR Filter Ki, pre-incubation 90 minutes
Description: as §2, §3, §4

dog GHSR1a = molecular target: T2, dog GHSR1a (Canis lupus familiaris, UniProt A5HKU8); assay: Radioligand binding filtration format assay, dog GHSR1a; conditions: pre-incubation 90 minutes; read-out: Dog GHS-1aR Filter Ki (converted)
T2 construct: dog (NM_001099945.1)
Description: as §2
(§5) Assays were initiated by addition of 23 μl assay buffer (50 mM HEPES, 10 mM MgCl2, 0.2% BSA, EDTA-free protease inhibitor tablets—1 tablet/50 ml buffer, pH 7.4), 25 μl 4 mg/ml hGHSR1a membrane and 50 μl of 100 pM [^125I] ghrelin, both in assay buffer.
(§6) Radioligand binding filtration format assays for dog (NM_001099945.1), monkey (XM_001084886.1), mouse (NM_177330), and rat (NM_032075) GHSR1a (all expressed in unique HEK293 Tetracycline-Inducible cell lines) were performed in an identical manner as described for patient GHSR1a except that the final amount of membrane to be used is as follows: 2 μg dog GHSR, 250 ng monkey GHSR, 200 ng mouse GHSR, or 125 ng rat GHSR.

monkey GHSR1a = molecular target: T3, monkey GHSR1a (Macaca mulatta, UniProt F6Z4B1); assay: Radioligand binding filtration format assay, monkey GHSR1a; conditions: pre-incubation 90 minutes; read-out: Primate GHS-1aR Filter Ki (converted)
T3 construct: monkey (XM_001084886.1)
Description: as §2, §5, §6

patient GHSR1a [3] = molecular target: T1, patient GHSR1a
From the text: The assay monitors the ligand-dependent exchange of GDP for GTP. GPCR activation results in an increase in fluorescence as receptor-bound GDP is replaced by Europium-labeled GTP.

[4] = molecular target: broad panel of receptors, transporters, ion channels, and enzymes; assay: Selectivity against a broad panel
Male Wistar Han rats = assay: Locomotor activity after single oral dose; assay type: in vivo, rat
Description: (§7) Male Wistar Han rats were administered a single dose (1, 10, 50, or 150 mg/kg) of (R)-2-(2-methylimidazo[2,1-b]thiazol-6-yl)-1-(2-(5-(6-methylpyrimidin-4-yl)-2,3-dihydro-1H-inden-1-yl)-2,7-diazaspiro[3.5]nonan-7-yl)ethanone (Example 1) via oral gavage to assess the effects of Example 1 on locomotor activity over a 21 hour period (FIG. 1). Animals were habituated to the locomotor apparatus one hour prior to dosing. The lights were turned off at 4 pm and turned on at 4 am. Animals were dosed at 4 pm. Activity was monitored post-dose for 20 hours. Plasma, brains and CSF were taken from a satellite group of animals at Tmax (30 minutes post dosing).

[5] = Plasma and brain levels 30 minutes post dosing; assay type: in vivo, rat
Description: as §7

humans = assay: Clinical studies B3301001, B3301002, B3301007; assay type: in vivo, human
Description: Patients were administered Example 1 as an extemporaneously prepared suspension in B3301001, B3301002, and the IR in B3301007 and as an extemporaneously prepared osmotic capsule (EPOC) in B3301007. […] Dose related increase in heart rate (up to ˜10 beats per minute) as well as attenuation of both ghrelin-induced growth hormone secretion and postprandial glucose were seen after acute dosing.

male rhesus monkeys = assay: Primate study of sleep duration and food intake after evening dosing; assay type: in vivo, Macaca mulatta
From the text: In a primate study, the effect of Example 1 on sleep duration and food intake three hours post evening dosing Example 1 was studied dosing either once a day (QD) or twice a day (BID). Eight healthy adult (5.8 to 9.7 years of age) male rhesus monkeys, (Macaca mulatta, of Indian origin) were used. Animals were studied in parallel. According to a cross-over design, four of the animals received Example 1 (or Vehicle as a control) QD during the first phase of the study and BID during the second phase of the study. A reverse treatment schedule was used for the remaining four animals. When Example 1 was administered QD, the single dose was administered in the evening. Each treatment period lasted 28-30 consecutive days. Vehicle treatment lasted 10-14 days, immediately preceding the phase where Example 1 was administered. Animals were also kept in their sleep/circadian chambers to become familiar with them. Treatment was administered as a liquid solution, dispensed automatically using a timer-controlled pump. Throughout treatment periods, animals were maintained in light-controlled and sound attenuated sleep/circadian chambers, under constant conditions of dim light, in order to determine the intrinsic rhythms of sleep/activity and self-administered food intake. Sleep/activity cycle and sleep duration was documented using continuous on-line actigraphic image analysis technique, as described in Masuda et al., J Biol Rhythms. 2010 October; 25(5):361-71, Intrinsic activity rhythms in Macaca mulatta: their entrainment to light and melatonin. A software algorithm for actigraphic data analysis of sleep versus wakefulness in rhesus monkeys is explained in Zhdanova et al., J Biol Rhythms. 2011 April; 26(2):149-59. Aging of intrinsic circadian rhythms and sleep in a diurnal nonhuman primate, Macaca mulatta. Sleep onset and duration estimates were based on the comparisons between polysomnographic and actigraphic sleep in this species. Each circadian chamber was equipped with an individual touch-screen monitor, connected to an automatic pellet dispenser (ENV-203-1000, Med Associates Inc., St. Albans, Vt.). This allowed for ad libitum around the clock self-administration of 1 g food pellets (Nutritionally complete dustless precision pellets, Bio-Serv, Frenchtown, N.J.) via pressing a moving on-screen target. The time each pellet dispensed was documented. Data analysis was conducted using linear mixed model (SPSS), with the level of significance at p<0.05. Data were presented as group means (standard error of the means (SEM)) for each treatment condition: QD or BID administration of vehicle or Example 1.

[6] = 10 mg/kg oral gavage, 35-65 minutes post dosing
[7] = 50 mg/kg oral gavage, 35-65 minutes post dosing
[8] = QD and BID groups, N=8 per group, p<0.01
[9] = individual animal, evening QD, throughout the treatment period

T1 sequence (Q92847 whole entry): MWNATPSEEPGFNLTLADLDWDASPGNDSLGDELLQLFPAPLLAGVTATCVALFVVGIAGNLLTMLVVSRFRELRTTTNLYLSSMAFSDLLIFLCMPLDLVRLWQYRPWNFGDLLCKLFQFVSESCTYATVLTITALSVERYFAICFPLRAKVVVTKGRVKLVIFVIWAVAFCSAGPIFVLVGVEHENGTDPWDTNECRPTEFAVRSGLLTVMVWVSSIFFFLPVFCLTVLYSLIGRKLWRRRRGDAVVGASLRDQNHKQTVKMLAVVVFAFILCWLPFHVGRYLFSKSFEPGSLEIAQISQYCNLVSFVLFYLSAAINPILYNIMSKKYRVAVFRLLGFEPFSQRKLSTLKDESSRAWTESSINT
T2 sequence (A5HKU8 1-349): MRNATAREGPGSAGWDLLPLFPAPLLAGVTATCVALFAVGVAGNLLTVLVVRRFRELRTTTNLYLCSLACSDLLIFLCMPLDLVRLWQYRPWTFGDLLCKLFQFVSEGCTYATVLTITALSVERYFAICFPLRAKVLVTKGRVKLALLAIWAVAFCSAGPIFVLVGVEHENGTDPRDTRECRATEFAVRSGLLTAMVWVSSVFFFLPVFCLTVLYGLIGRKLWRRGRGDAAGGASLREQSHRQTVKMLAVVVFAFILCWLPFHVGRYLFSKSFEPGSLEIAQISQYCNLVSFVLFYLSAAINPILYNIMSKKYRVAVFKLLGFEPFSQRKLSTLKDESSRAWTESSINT
T3 sequence (F6Z4B1 1-366): as the sequence (Q92847 whole entry) above, with P6A, D20E, Q36R, A59S, V163I counted along it
mouse GHSR1a, sequence (Q99P50 whole entry): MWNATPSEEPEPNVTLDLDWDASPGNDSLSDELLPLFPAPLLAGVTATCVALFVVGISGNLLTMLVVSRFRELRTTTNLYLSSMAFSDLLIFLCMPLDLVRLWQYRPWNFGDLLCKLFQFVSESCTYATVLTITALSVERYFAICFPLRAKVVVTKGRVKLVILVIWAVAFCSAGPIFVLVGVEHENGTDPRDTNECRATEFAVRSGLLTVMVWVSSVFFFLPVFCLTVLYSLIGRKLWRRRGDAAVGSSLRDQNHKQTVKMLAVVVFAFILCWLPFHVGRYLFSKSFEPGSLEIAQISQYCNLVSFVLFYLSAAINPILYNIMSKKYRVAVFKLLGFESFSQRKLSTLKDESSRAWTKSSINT
rat GHSR1a, sequence (O08725 whole entry): as the sequence (Q99P50 whole entry) above, with S30P, S249A counted along it

Question: What does the source list for `Cc1cc(-c2ccc3c(c2)CC[C@H]3N2CC3(CCN(C(=O)Cc4cn5cc(C)sc5n4)CC3)C2)ncn1` [Example 1, (R)-2-(2-methylimidazo[2,1-b]thiazol-6-yl)-1-(2-(5-(6-methylpyrimidin-4-yl)-2,3-dihydro-1H-inden-1-yl)-2,7-diazaspiro[3.5]nonan-7-yl)ethanone]?
Answer: Human GHS-1aR SPA Ki (patient GHSR1a [1]): 2.24 ng/mL; Ki (patient GHSR1a [2]; pre-incubation 90 minutes): 2.49 nM and 2.5 nM; Ki (patient GHSR1a [2]; pre-incubation 24 hours): 1.42 nM; Kd (patient GHSR1a [2]; Human GHS-1aR Filter Motulsky Kd, Equilibrium 4.07 hours): 3.04 nM; Kd (patient GHSR1a [2]; human Kd via Patient Ghrelin Filter Binding Assay): 3 nM; Ki (mouse GHSR1a): 7.7 nM; Ki (rat GHSR1a): 3.19 nM and 3.2 nM; Ki (dog GHSR1a): 3.56 nM and 3.57 nM; Ki (monkey GHSR1a): 1.83 nM; functionality of the test compound (patient GHSR1a [3]): inverse agonist; IC50 [4]: > 1000 nM; effect on locomotor activity compared to vehicle (Male Wistar Han rats; 1 mg/kg oral gavage, 35-65 minutes post dosing): no biologically or statistically significant effect; decrease in rearing (Male Wistar Han rats; [6]): 56%; decrease in total locomotor activity (Male Wistar Han rats; [6]): 60%; decrease in rearing (Male Wistar Han rats; [7]): 43%; decrease in total locomotor activity (Male Wistar Han rats; [7]): 48%; total activity compared to vehicle control (Male Wistar Han rats; 150 mg/kg oral gavage, 35-65 minutes post dosing): reduction in total activity which was statistically significant; total activity (Male Wistar Han rats; 20 hours post dosing): no statistically or biologically significant reductions in total activity; hyperactivity (Male Wistar Han rats; any dose (1-150 mg/kg)): did not induce hyperactivity; Brain (nM free) ([5]; 1 mg/kg oral): 1.6 nM free; Plasma (nM free) ([5]; 1 mg/kg oral): 18 nM free; Brain (nM free) ([5]; 10 mg/kg oral): 16 nM free; Plasma (nM free) ([5]; 10 mg/kg oral): 184 nM free; Brain (nM free) ([5]; 50 mg/kg oral): 80 nM free; Plasma (nM free) ([5]; 50 mg/kg oral): 856 nM free; Brain (nM free) ([5]; 150 mg/kg oral): 148 nM free; Plasma (nM free) ([5]; 150 mg/kg oral): 1704 nM free; dose related increase in heart rate (humans; after acute dosing): ≤ 10 beats per minute; ghrelin-induced growth hormone secretion (humans; after acute dosing): attenuation; postprandial glucose (humans; after acute dosing): attenuation; safety and tolerability in humans (humans; up to 100 mg BID for 14 days): safe and generally well tolerated; change in food intake within 3 hours of evening administration vs vehicle (male rhesus monkeys; [8]): significant decrease in food intake; change in sleep duration within 3 hours of evening treatment vs vehicle (male rhesus monkeys; [8]): significant increase in sleep duration; food intake soon after administration (male rhesus monkeys; [9]): significantly reduced food intake; sleep latency (male rhesus monkeys; [9]): significantly reduced sleep latency
